Results reported in patent US8747873B2, “Compositions of dibromomalonamide and their use as biocides” (Dow Global Technologies LLC, priority 2012, dated 2014).
Where two headings read alike, the source gives them in different places.

Experiments:
[1] = tested on: mixture of Pseudomonas aeruginosa ATCC 10145 and Staphylococcus aureus ATCC 6538; assay: Kill assay (MBC, synergy index); format: cell-based; settings: 37° C., 2 hours
Method: This assay is used as a preliminary evaluation of synergy between the actives. The procedure is as follows. A mineral salts solution (0.2203 g of CaCl2, 0.1847 g of MgSO4, and 0.2033 g of NaHCO3 in 1 L water, approximately pH 8) is inoculated with equal amounts (about 10^7 CFU/ml) of a mixture of Pseudomonas aeruginosa ATCC 10145 and Staphylococcus aureus ATCC 6538. Aliquots of the cell suspension are then treated with 2,2-dibromomalonamide (“DBMAL”), […], and their combinations at various concentration levels. […] The MBC values are then used to calculate a synergy index (SI) values.
Summaries of the kill assay results are presented in the individual Examples. In each table, MBC values for each biocide and the blends tested are presented Likewise, the Synergy Index (“SI”) values for the combinations are listed. SI is calculated with the following equation: Synergy Index=Ca/CA+Mb/CB […]

[2] = tested on: mixture of Pseudomonas aeruginosa, Klebsiella pneumoniae, Staphylococcus aureus, and Bacillus subtilis; assay: Growth inhibition assay; format: cell-based; settings: 24 h; for inhibition at 0.19 µg/mL / inhibition at 0.39 µg/mL / inhibition at 0.78 µg/mL / inhibition at 1.56 µg/mL / inhibition at 3.13 µg/mL / inhibition at 6.25 µg/mL / inhibition at 12.5 µg/mL / inhibition at 25 µg/mL: read-out: % Inhibition of growth by DBMAL
Source text: The growth inhibition assay used in the Examples measures inhibition of growth (or lack thereof) of a microbial consortium. Inhibition of growth can be the result of killing of the cells (so no growth occurs), killing of a significant portion of the populations of cells so that regrowth requires a prolonged time, or inhibition of growth without killing (stasis). Regardless of the mechanism of action, the impact of a biocide (or combination of biocides) can be measured over time on the basis of an increase in the size of the community.
The assay measures the efficacy of one or more biocides at preventing growth of a consortium of bacteria in a dilute mineral salts medium. The medium contains (in mg/l) the following components: FeCl3.6H2O (1); CaCl2.2H2O (10); MgSO4.7H2O (22.5); (NH4)2SO4 (40); KH2PO4 (10); K2HPO4 (25.5); Yeast Extract (10); and glucose (100). After all components are added to deionized water, the pH of the medium is adjusted to 7.5. Following filter sterilization, aliquots are dispensed in 100 ul quantities to sterile microtiter plate wells. Dilutions of DBMAL and/or “Biocide B” are then added to the microtiter plate. After preparing the combinations of actives as illustrated below, each well is inoculated with 100 μl of a cell suspension containing ca. 1×10^6 cells per milliliter of a mixture of Pseudomonas aeruginosa, Klebsiella pneumoniae, Staphylococcus aureus, and Bacillus subtilis. The final total volume of medium in each well is 300 μl. […] The resulting matrix allows testing of eight concentrations of each active and 64 combinations of actives in the ratios (of actives).
Controls (not shown) contain the medium with no biocide added. After preparing the combinations of actives as illustrated above, each well is inoculated with 100 μl of a cell suspension containing ca. 1×10^6 cells per milliliter of a mixture of Pseudomonas aeruginosa, Klebsiella pneumoniae, Staphylococcus aureus, and Bacillus subtilis. The final total volume of medium in each well is 300 μl.
Immediately after the microtiter plates are prepared, the optical density (OD) readings for each well is measured at 580 nm and the plates are then incubated at 37° C. for 24 hr. After the incubation period, the plates are gently agitated before OD580 values are collected. The OD580 values at T0 are subtracted from T24 values to determine the total amount of growth (or lack thereof) that occurs. These values are used to calculate the percent inhibition of growth caused by the presence of each biocide and each of the 64 combinations. A 90% inhibition of growth is used as a threshold for calculating synergy index (SI) values with the following equation: Synergy Index=MDBMAL/CDBMAL+MB/CB
where • CDBMAL: Concentration of DBMAL required to inhibit ˜90% of bacterial growth when used alone • CB: Concentration of biocide (B) required to inhibit ˜90% of bacterial growth when used alone. • MDBMAL: Concentration of DBMAL required to inhibit ˜90% of bacterial growth when used in combination with biocide (B). • MB: Concentration of biocide (B) required to inhibit ˜90% of bacterial growth when used in combination with DBMAL The SI values are interpreted as follows: • SI<1: Synergistic combination • SI=1: Additive combination • SI>1: Antagonistic combination

## NC(=O)C(Br)(Br)C(N)=O [DBMAL, 2,2-dibromomalonamide]
[1]
  MBC (minimum biocide concentration needed to completely kill), biocide alone: 66.7 µg/mL
[2]; Table 3, DBMAL alone 0.19 mg/l
  inhibition at 0.19 µg/mL: 0%
[2]; Table 3, DBMAL alone 0.39 mg/l
  inhibition at 0.39 µg/mL: 0%
[2]; Table 3, DBMAL alone 0.78 mg/l
  inhibition at 0.78 µg/mL: 34%
[2]; Table 3, DBMAL alone 1.56 mg/l
  inhibition at 1.56 µg/mL: 11%
[2]; Table 3, DBMAL alone 3.13 mg/l
  inhibition at 3.13 µg/mL: 38%
[2]; Table 3, DBMAL alone 6.25 mg/l
  inhibition at 6.25 µg/mL: 50%
[2]; Table 3, DBMAL alone 12.5 mg/l
  inhibition at 12.5 µg/mL: 107%
[2]; Table 3, DBMAL alone 25.0 mg/l
  inhibition at 25 µg/mL: 105%
[2]; Table 6, DBMAL alone 0.19 mg/l
  inhibition at 0.19 µg/mL: 0%
[2]; Table 6, DBMAL alone 0.39 mg/l
  inhibition at 0.39 µg/mL: 0%
[2]; Table 6, DBMAL alone 0.78 mg/l
  inhibition at 0.78 µg/mL: 18%
[2]; Table 6, DBMAL alone 1.56 mg/l
  inhibition at 1.56 µg/mL: 34%
[2]; Table 6, DBMAL alone 3.13 mg/l
  inhibition at 3.13 µg/mL: 50%
[2]; Table 6, DBMAL alone 6.25 mg/l
  inhibition at 6.25 µg/mL: 44%
[2]; Table 6, DBMAL alone 12.5 mg/l
  inhibition at 12.5 µg/mL: 97%
[2]; Table 6, DBMAL alone 25 mg/l
  inhibition at 25 µg/mL: 100%
[2]; Table 8, DBMAL alone 0.19 mg/l
  inhibition at 0.19 µg/mL: 0%
[2]; Table 8, DBMAL alone 0.39 mg/l
  inhibition at 0.39 µg/mL: 2%
[2]; Table 8, DBMAL alone 0.78 mg/l
  inhibition at 0.78 µg/mL: 0%
[2]; Table 8, DBMAL alone 1.56 mg/l
  inhibition at 1.56 µg/mL: 0%
[2]; Table 8, DBMAL alone 3.13 mg/l
  inhibition at 3.13 µg/mL: 0%
[2]; Table 8, DBMAL alone 6.25 mg/l
  inhibition at 6.25 µg/mL: 0%
[2]; Table 8, DBMAL alone 12.5 mg/l
  inhibition at 12.5 µg/mL: 100%
[2]; Table 8, DBMAL alone 25.0 mg/l
  inhibition at 25 µg/mL: 100%
[2]; Table 10, DBMAL alone 0.19 mg/l
  inhibition at 0.19 µg/mL: 7%
[2]; Table 10, DBMAL alone 0.39 mg/l
  inhibition at 0.39 µg/mL: 0%
[2]; Table 10, DBMAL alone 0.78 mg/l
  inhibition at 0.78 µg/mL: 0%
[2]; Table 10, DBMAL alone 1.56 mg/l
  inhibition at 1.56 µg/mL: 0%
[2]; Table 10, DBMAL alone 3.13 mg/l
  inhibition at 3.13 µg/mL: 0%
[2]; Table 10, DBMAL alone 6.25 mg/l
  inhibition at 6.25 µg/mL: 52%
[2]; Table 10, DBMAL alone 12.5 mg/l
  inhibition at 12.5 µg/mL: 99%
[2]; Table 10, DBMAL alone 25.0 mg/l
  inhibition at 25 µg/mL: 100%
[2]; Table 12 (4,4-D), DBMAL alone 0.19 mg/l
  inhibition at 0.19 µg/mL: 0%
[2]; Table 12 (4,4-D), DBMAL alone 0.39 mg/l
  inhibition at 0.39 µg/mL: 6%
[2]; Table 12 (4,4-D), DBMAL alone 0.78 mg/l
  inhibition at 0.78 µg/mL: 0%
[2]; Table 12 (4,4-D), DBMAL alone 1.56 mg/l
  inhibition at 1.56 µg/mL: 2%
[2]; Table 12 (4,4-D), DBMAL alone 3.13 mg/l
  inhibition at 3.13 µg/mL: 0%
[2]; Table 12 (4,4-D), DBMAL alone 6.25 mg/l
  inhibition at 6.25 µg/mL: 0%
[2]; Table 12 (4,4-D), DBMAL alone 12.5 mg/l
  inhibition at 12.5 µg/mL: 100%
[2]; Table 12 (4,4-D), DBMAL alone 25.0 mg/l
  inhibition at 25 µg/mL: 100%
[2]; Table 12 (TEHT), DBMAL alone 0.19 mg/l
  inhibition at 0.19 µg/mL: 13%
[2]; Table 12 (TEHT), DBMAL alone 0.39 mg/l
  inhibition at 0.39 µg/mL: 8%
[2]; Table 12 (TEHT), DBMAL alone 0.78 mg/l
  inhibition at 0.78 µg/mL: 30%
[2]; Table 12 (TEHT), DBMAL alone 1.56 mg/l
  inhibition at 1.56 µg/mL: 32%
[2]; Table 12 (TEHT), DBMAL alone 3.13 mg/l
  inhibition at 3.13 µg/mL: 45%
[2]; Table 12 (TEHT), DBMAL alone 6.25 mg/l
  inhibition at 6.25 µg/mL: 32%
[2]; Table 12 (TEHT), DBMAL alone 12.5 mg/l
  inhibition at 12.5 µg/mL: 97%
[2]; Table 12 (TEHT), DBMAL alone 25.0 mg/l
  inhibition at 25 µg/mL: 96%
[2]; biocide alone
  concentration needed to provide at least 90% inhibition of growth: 12.5 mg/L
